# Measured values from PMC10590383, “Repurposing conformational changes in ANL superfamily enzymes to rapidly generate biosensors for organic and amino acids” (Nature Communications, 2023).
# Test: pH stability of […]-Phe3 (dose–response and fluorescence intensity at pH 6.5, 7.5, 8.5)
# Format: biochemical
# Details: for fluorescence response of GECFINDER, AVE of 3 repeats: Supplementary Fig. 3 e; for fluorescence intensity, AVE of 3 repeats: Supplementary Fig. 3 d, 100 μM Phe
# Excerpt: As cpEGFP is sensitive to pH, we conducted a dose-response curve and fluorescence intensity analysis of […]-Phe3 at varying pH levels. […] In addition, we expanded the range of ligand-binding domains (LBDs) applicable to […] and attempted optimization of insertion sites for cpEGFP with limited success. Please refer to Supplemental Note 1 for detailed information.
# The study conducted dose–response curve, substrate specificity, and fluorescent spectrum analyses in 100-mM Tris buffer (pH = 7.5), while pH stability experiments were performed in 100-mM Tris buffer at three different pH values (6.5, 7.5, and 8.5) at room temperature. […] protein at a concentration of 0.75 μM, various small molecule concentrations, 1 mM ATP, and 2.5 mM MgCl2 were used in the experiments. Fluorescent signals were detected using a Microplate Reader (Synergy H4, Bio Tek) at an excitation/emission wavelength of 460 nm/510 nm or 480 nm/510 nm. The dose-response curve was determined immediately after the addition of the analyte. The total duration of the measurement was 15 min, with readings taken at one-minute intervals. The dose-response curve was plotted using the fluorescence values obtained after achieving stability in the fluorescence signal. The dose-response curves were fitted using the logistic model LOGISTIC5 available in Origin 2021, which could provide a more adequate fit to asymmetric dose-response data[62],[63]. Excitation spectra were scanned from 300 to 540 nm with a step size of 5 nm, and the emission wavelength was set to 560 nm. Emission spectra were scanned from 470 to 700 nm with a step size of 5 nm, and the excitation wavelength was set to 450 nm. The thermal stability of […] was analyzed using the UNcle multifunctional protein stability analysis system. Measurements were performed in 20 mM MOPS buffer with 2 mM DTT at a sample concentration of 1 mg/mL. Absolute fluorescence quantum yields were measured using an absolute photoluminescence quantum yield spectrometer (FS5, Edinburgh). […]
# β-P he. […]
# All data shown are mean s ± S.D . (n =3 biologically inde pendent samples). Source
# data are provided as a Source Data file.
# (also on this page, place not known: 10210-210-3 Normalized Normalized […]-Leu3 10-4 10⁵ 2.5 Normalized ΔF/F 0 AlaAr As p As […]Pr SerThr ValTrpTyr Ph R-β-Ph β-Ph e 2.5Normalized ΔF/F 0 Substrate 100μM 100μM 100μM Fluorescence ...K ...N GrsA-PheA PpsA-GluA -QSVF- 10⁰ 10⁵ […]-Ile(VF-QS) Normalized ΔF/F 0 (μM) 0mM 0.75mM His 12×10³Intensity f g Substrate specificity engineering insertion optimization […]. Dose–response purified […]-Leu2 increasing concentrations normalized ΔF/F0 […]-SβF acids R/S- β-Phe. concentrations substrates Fluorescence purified […]-Phe3 different control fluorescence substrate added. response purified […]-Phe3 increasing concentrations different junction domain Dose–response curve purified […]-Ile (VF-QS) increasing concentrations Normalized ΔF/F0 increased after excitation).h, Difference fluorescence intensity […]-His (VF-QS) presence histidine compared control means S.D. (n=3 independent) […]
compound,measurement,setting,value
N[C@@H](Cc1ccccc1)C(=O)O [Phe],"fluorescence response of GECFINDER, AVE of 3 repeats","pH6.5, Phe 0.001 μM",-5.5222e-17
same,"fluorescence response of GECFINDER, AVE of 3 repeats","pH6.5, Phe 0.005 μM",0.01941
same,"fluorescence response of GECFINDER, AVE of 3 repeats","pH6.5, Phe 0.01 μM",0.04517
same,"fluorescence response of GECFINDER, AVE of 3 repeats","pH6.5, Phe 0.05 μM",0.1259
same,"fluorescence response of GECFINDER, AVE of 3 repeats","pH6.5, Phe 0.1 μM",0.2201
same,"fluorescence response of GECFINDER, AVE of 3 repeats","pH6.5, Phe 0.5 μM",0.7727
same,"fluorescence response of GECFINDER, AVE of 3 repeats","pH6.5, Phe 1 μM",1.198
same,"fluorescence response of GECFINDER, AVE of 3 repeats","pH6.5, Phe 5 μM",2.235
same,"fluorescence response of GECFINDER, AVE of 3 repeats","pH6.5, Phe 10 μM",2.5727
same,"fluorescence response of GECFINDER, AVE of 3 repeats","pH6.5, Phe 25 μM",2.94
same,"fluorescence response of GECFINDER, AVE of 3 repeats","pH6.5, Phe 50 μM",3.093
same,"fluorescence response of GECFINDER, AVE of 3 repeats","pH6.5, Phe 100 μM",3.166
same,"fluorescence response of GECFINDER, AVE of 3 repeats","pH7.5, Phe 0.001 μM",0
same,"fluorescence response of GECFINDER, AVE of 3 repeats","pH7.5, Phe 0.005 μM",0.04668
same,"fluorescence response of GECFINDER, AVE of 3 repeats","pH7.5, Phe 0.01 μM",0.05356
same,"fluorescence response of GECFINDER, AVE of 3 repeats","pH7.5, Phe 0.05 μM",0.1413
same,"fluorescence response of GECFINDER, AVE of 3 repeats","pH7.5, Phe 0.1 μM",0.2634
same,"fluorescence response of GECFINDER, AVE of 3 repeats","pH7.5, Phe 0.5 μM",0.9215
same,"fluorescence response of GECFINDER, AVE of 3 repeats","pH7.5, Phe 1 μM",1.384
same,"fluorescence response of GECFINDER, AVE of 3 repeats","pH7.5, Phe 5 μM",2.412
same,"fluorescence response of GECFINDER, AVE of 3 repeats","pH7.5, Phe 10 μM",2.788
same,"fluorescence response of GECFINDER, AVE of 3 repeats","pH7.5, Phe 25 μM",3.108
same,"fluorescence response of GECFINDER, AVE of 3 repeats","pH7.5, Phe 50 μM",3.25
same,"fluorescence response of GECFINDER, AVE of 3 repeats","pH7.5, Phe 100 μM",3.385
same,"fluorescence response of GECFINDER, AVE of 3 repeats","pH8.5, Phe 0.001 μM",5.725e-17
same,"fluorescence response of GECFINDER, AVE of 3 repeats","pH8.5, Phe 0.005 μM",0.003084
same,"fluorescence response of GECFINDER, AVE of 3 repeats","pH8.5, Phe 0.01 μM",0.009629
same,"fluorescence response of GECFINDER, AVE of 3 repeats","pH8.5, Phe 0.05 μM",0.04022
same,"fluorescence response of GECFINDER, AVE of 3 repeats","pH8.5, Phe 0.1 μM",0.0788
same,"fluorescence response of GECFINDER, AVE of 3 repeats","pH8.5, Phe 0.5 μM",0.5458
same,"fluorescence response of GECFINDER, AVE of 3 repeats","pH8.5, Phe 1 μM",0.9288
same,"fluorescence response of GECFINDER, AVE of 3 repeats","pH8.5, Phe 5 μM",1.837
same,"fluorescence response of GECFINDER, AVE of 3 repeats","pH8.5, Phe 10 μM",2.121
same,"fluorescence response of GECFINDER, AVE of 3 repeats","pH8.5, Phe 25 μM",2.449
same,"fluorescence response of GECFINDER, AVE of 3 repeats","pH8.5, Phe 50 μM",2.595
same,"fluorescence response of GECFINDER, AVE of 3 repeats","pH8.5, Phe 100 μM",2.661
same,"fluorescence intensity, AVE of 3 repeats",pH6.5,11375
same,"fluorescence intensity, AVE of 3 repeats",pH7.5,18474.7
same,"fluorescence intensity, AVE of 3 repeats",pH8.5,19389
